Like-named read-outs stand apart in the source and are kept apart here.
Columns and labels:
ovine COX-1 = target: T1, ovine COX-1 (Ovis aries, UniProt P05979); test: Inhibition of ovine COX-1, TLC assay ([1-14C]-arachidonic acid), time-dependent
T1 sequence (P05979 25-600): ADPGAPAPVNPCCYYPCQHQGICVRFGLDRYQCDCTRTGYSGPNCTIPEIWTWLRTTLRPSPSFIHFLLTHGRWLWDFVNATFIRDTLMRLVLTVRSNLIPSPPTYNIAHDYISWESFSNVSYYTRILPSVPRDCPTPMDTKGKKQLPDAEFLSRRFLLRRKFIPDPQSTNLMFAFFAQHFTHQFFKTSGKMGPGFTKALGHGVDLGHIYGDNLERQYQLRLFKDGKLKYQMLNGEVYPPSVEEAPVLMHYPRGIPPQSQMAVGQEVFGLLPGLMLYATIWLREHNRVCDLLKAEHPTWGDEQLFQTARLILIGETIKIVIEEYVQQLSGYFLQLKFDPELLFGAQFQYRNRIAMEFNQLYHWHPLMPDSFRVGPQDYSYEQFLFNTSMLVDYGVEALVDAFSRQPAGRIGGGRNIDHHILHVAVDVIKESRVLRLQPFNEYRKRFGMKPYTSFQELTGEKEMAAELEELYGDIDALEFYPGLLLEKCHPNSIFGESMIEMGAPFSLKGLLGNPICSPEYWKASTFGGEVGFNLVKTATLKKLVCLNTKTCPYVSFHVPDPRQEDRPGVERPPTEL

human COX-2 = target: T2, human COX-2 (Homo sapiens, UniProt P35354); test: Inhibition of purified human COX-2, TLC assay ([1-14C]-arachidonic acid), time-dependent; details: for Selectivity: COX-2 selectivity ratio, IC50 COX-1 / IC50 COX-2
T2 sequence (P35354 18-604): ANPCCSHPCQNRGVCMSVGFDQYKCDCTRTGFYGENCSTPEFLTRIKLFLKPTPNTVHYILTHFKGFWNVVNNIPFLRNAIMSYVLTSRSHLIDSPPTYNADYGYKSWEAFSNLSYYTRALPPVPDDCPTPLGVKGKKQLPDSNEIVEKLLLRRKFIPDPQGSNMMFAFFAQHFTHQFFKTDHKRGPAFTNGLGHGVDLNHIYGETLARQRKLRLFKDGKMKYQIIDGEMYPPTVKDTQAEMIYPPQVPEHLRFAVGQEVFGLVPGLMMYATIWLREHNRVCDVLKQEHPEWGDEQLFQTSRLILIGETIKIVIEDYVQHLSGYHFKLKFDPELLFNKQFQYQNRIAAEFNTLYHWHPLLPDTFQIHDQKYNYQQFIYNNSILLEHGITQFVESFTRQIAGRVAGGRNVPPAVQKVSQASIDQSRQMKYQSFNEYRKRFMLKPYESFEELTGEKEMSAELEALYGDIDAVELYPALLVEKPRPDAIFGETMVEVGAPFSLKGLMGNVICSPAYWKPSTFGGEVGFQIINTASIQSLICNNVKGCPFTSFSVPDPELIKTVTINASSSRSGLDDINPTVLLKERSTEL

[1] = target: T3, COX-2 in activated RAW264.7 macrophages (Mus musculus, UniProt Q05769); test: Inhibition of COX-2 activity (PGD2 production) in intact activated RAW264.7 cells; format: cell-based, murine; details: FIG. 1; inhibitor 0-1 μM, 30 minutes at 37° C.; LPS + IFN-γ activated
T3 construct: PGD2 from [1-14C]-arachidonic acid by TLC
T3 sequence (Q05769 18-604): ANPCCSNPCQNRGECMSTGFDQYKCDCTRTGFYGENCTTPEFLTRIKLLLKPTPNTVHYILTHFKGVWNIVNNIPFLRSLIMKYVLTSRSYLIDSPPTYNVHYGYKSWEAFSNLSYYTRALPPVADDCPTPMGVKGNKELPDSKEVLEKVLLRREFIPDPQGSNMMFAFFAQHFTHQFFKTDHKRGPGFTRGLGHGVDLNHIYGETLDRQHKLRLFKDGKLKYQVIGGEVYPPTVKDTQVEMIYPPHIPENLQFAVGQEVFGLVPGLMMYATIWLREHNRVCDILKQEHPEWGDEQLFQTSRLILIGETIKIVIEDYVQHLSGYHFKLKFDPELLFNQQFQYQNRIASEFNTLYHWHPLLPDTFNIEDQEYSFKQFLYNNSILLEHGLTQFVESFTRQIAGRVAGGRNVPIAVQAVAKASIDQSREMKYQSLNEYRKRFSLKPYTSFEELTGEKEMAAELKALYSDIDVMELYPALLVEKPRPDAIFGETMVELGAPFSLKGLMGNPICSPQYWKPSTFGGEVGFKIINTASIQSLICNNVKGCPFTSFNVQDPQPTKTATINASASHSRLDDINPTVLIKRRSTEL
Procedure: The ability of these compounds to inhibit COX-2 in intact cells was assayed in activated RAW264.7 macrophages in which COX-2 activity was induced by pathologic stimuli. The macrophages were treated with lipopolysaccharide ([…]) and γ-interferon (10 U/mL) for 7.5 hours to induce COX-2 and then treated with several concentrations of each of inventive Compounds 5c, 5e, and 9e.
More specifically, low passage number murine RAW264.7 cells were grown in DMEM containing 10% heat-inactivated FBS. Cells (6.2×10^6 cells/T25 flask) were activated with 500 ng/mL LPS and 10 units/mL IFN-γ in serum-free DMEM for 7 hours. Vehicle (DMSO) or inhibitor (inventive Compound 5c, 5e, or 9e) in DMSO (0-1 μM) was added for 30 minutes at 37° C. […] Aliquots (200 μL) were removed into termination solution and total products were quantitatively determined by the TLC assay as described earlier.

[2] = system: carrageenan-induced rat foot paw edema; test: Carrageenan-induced rat foot paw edema assay; format: in vivo, rat (male Sprague Dawley); details: FIG. 2 / FIG. 3; gavage 1 hour after carrageenan, paw volume at 3 hour post-injection
Procedure: All procedures were performed according to approved animal protocols (#M/98/251, Vanderbilt University Animal Care Committee). Male Sprague Dawley rats (Harlan Sprague Dawley, Indianapolis, Ind.) (150-175 grams) were fasted for 18 hours and then injected with λ-carrageenan (0.1 ml of a 1% suspension in 0.85% saline, Fluka BioChemika, Milwaukee, Wis.) into the right hind footpad. After 1 hour, 90 μl inhibitor (either Compound 5c or Compound 9e) in DMSO was added to 6 ml corn oil, and the rats were gavaged with 0.5 ml corn oil containing DMSO or containing DMSO and inhibitor.
The ipsilateral footpad volume was measured with a water displacement plethysmometer (Ugo Basile, Italy, distributed by Stoelting Co., Wood Dale, Ill.) at 3 hour post-injection and compared to the initial pre-injection paw volume. Inhibitor concentrations were varied as shown in FIG. 2 (Compound 5c) and FIG. 3 (Compound 9e), with n=6 animals per group in duplicate experiments.

Selectivity (human COX-2; Table 1 esters) | IC50 (ovine COX-1) [µM] | IC50 (human COX-2) [nM] | Compound | further results
> 1015 |  |  | CCCCC(=O)OCCc1c(C)n(C(=O)c2ccc(Cl)cc2)c2ccc(OC)cc12 [Compound 5a, N-(p-chlorobenzoyl)-5-methoxy-2-methylindole-3-ethyl-valerate] | IC50 (ovine COX-1; read-out: IC50 COX-1, Table 1 esters, ovine COX-1 (44 nM) preincubated 25° C. 15 min, [1-14C]-arachidonic acid 50 μM, 37° C., 30 seconds, duplicate): > 66 µM; IC50 (human COX-2; read-out: IC50 COX-2, Table 1 esters, time-dependent inhibition, [1-14C]-arachidonic acid 50 μM, 37° C., 30 seconds, duplicate): 650 nM
> 1320 | > 66 | 50 | COc1ccc2c(c1)c(CCOC(=O)c1ccc(Cl)cc1)c(C)n2C(=O)c1ccc(Cl)cc1 [Compound 5e, N -(p-chlorobenzoyl)-5-methoxy-2-methylindole-3-ethyl-(p-chloro)benzoate] | inhibition of production of PGD2 [1]: inhibition of production of PGD2
> 1466 | > 66 | 40 | COc1ccc2c(c1)c(CCOC(=O)c1ccc(Br)cc1)c(C)n2C(=O)c1ccc(Cl)cc1 [Compound 5f, N-(p-Chlorobenzoyl)-5-methoxy-2-methylindole-3-ethyl-(p-bromo)benzoate] | 
> 1466 | > 66 | 40 | COc1ccc(C(=O)OCCc2c(C)n(C(=O)c3ccc(Cl)cc3)c3ccc(OC)cc23)cc1 [Compound 5c, N-(p-chlorobenzoyl)-5-methoxy-2-methylindole-3ethylo-(p-methoxy)benzoate] | inhibition of production of PGD2 [1]: inhibition of production of PGD2; inhibition of edema in the rat footpad [2]: inhibition of edema in the rat footpad
> 1320 | > 66 | 50 | COc1ccc2c(c1)c(CCOC(=O)c1ccc(C)cc1)c(C)n2C(=O)c1ccc(Cl)cc1 [Compound 5b, N-(pchlorobenzoyl)-5-methoxy-2-methylindole-ethyl-(p-methyl)benzoate] | 
 | > 66 |  | COc1ccc2c(c1)c(CCOC(=O)c1ccc(Cl)cc1)c(C)n2Cc1ccc(Br)cc1 [Compound 5h, N-(p-bromobenzyl)-5-methoxy-2-methylindole-3-ethyl-(p-chloro)benzoate] | 
> 1320 | > 66 | 50 | COc1ccc2c(c1)c(CCOC(=O)c1ccc(I)cc1)c(C)n2C(=O)c1ccc(Cl)cc1 [Compound 5g, N-(phlorobenzoyl)-5-methoxy-2-methylindole-3-ethyl(-p-iodo)benzoate] | 
 |  |  | N-(p-chlorobenzoyl)-5-methoxy-2-methylindole-3-ethyl-(2-phenyl)ethylamide [Compound 9i] | IC50 (ovine COX-1; read-out: IC50 COX-1, inventive amides table): ~17 µM; Selectivity (human COX-2; inventive amides table): ~ 425; IC50 (human COX-2; read-out: IC50 COX-2, inventive amides table): ~40 nM
 | 4 | 50 | COc1ccc2c(c1)c(CCNC(=O)c1ccc(Cl)cc1)c(C)n2C(=O)c1ccc(Cl)cc1 [Compound 9e, N-(p-chlorobenzoyl)-5-methoxy-2-methylindole-3-ethyl-(p-chloro)benzamide] | inhibition of production of PGD2 [1]: inhibition of production of PGD2; Selectivity (human COX-2; inventive amides table): 80; inhibition of edema in the rat footpad [2]: inhibition of edema in the rat footpad
> 1320 | > 66 | 50 | COc1ccc2c(c1)c(CCOC(=O)c1ccccc1OC)c(C)n2C(=O)c1ccc(Cl)cc1 [Compound 5d, N-(pchlorobenzoyl)-5-methoxy-2-methylindole-3thyl-(o-methoxy)benzoate] | 
 | > 66 |  | COc1ccc2c(c1)c(CCNC(=O)c1ccc(Cl)cc1)c(C)n2Cc1ccc(Br)cc1 [Compound 9h, N-(p-bromobenzyl)-5-methoxy-2-methylindole-3-ethyl(p-chloro) benzamide] | 
